According to patent publication US20110306597A1, “Nicotinamide Derivatives” (priority 2008, published 2011):

What follows are compounds tested against human recombinant H-PGDS (Homo sapiens, UniProt O60760) (assay: Fluorescence Intensity h-PGDS TBA Enzyme Assay). Conditions: 1:175,000 human recombinant H-PGDS, highest inhibitor concentration typically 1 μM.
Sequence of human recombinant H-PGDS (O60760 whole entry): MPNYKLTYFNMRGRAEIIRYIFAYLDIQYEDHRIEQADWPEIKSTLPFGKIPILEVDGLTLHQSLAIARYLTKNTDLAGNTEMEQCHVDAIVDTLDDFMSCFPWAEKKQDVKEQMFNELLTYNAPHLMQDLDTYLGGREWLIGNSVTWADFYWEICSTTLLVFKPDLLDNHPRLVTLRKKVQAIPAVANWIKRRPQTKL
Assay type: biochemical
How it was run: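 Recombinant human H-PGDS preincubated 10 min at room temperature with inhibitor in 100 mM Tris pH 8.0, 100 μM MgCl2, 2.5 mM glutathione, 0.5% DMSO; 5.0 μM PGH2 added, stopped after 42 s with FeCl2/citric acid. Remaining PGH2 measured as MDA–TBA fluorescence (ex 530/em 565 nm); IC50 by 4-parameter fit, 11 concentrations.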
Compound `O=C(NCc1ccccc1)c1ccc(-c2ccc(F)cc2)nc1` [Example 499, N-Benzyl-6-(4-fluorophenyl)nicotinamide] has an IC50 of 321 nM.
Compound `COC(=O)CNC(=O)c1ccc(-c2ccc(F)cc2)nc1` [Example 500, Methyl N-{[6-(4-fluorophenyl)pyridin-3-yl]carbonyl}glycinate] has an IC50 of at least 1000 nM.
Compound `CC(C)[C@H](N)C(=O)NC(=O)c1ccc(-c2ccc(F)cc2)nc1` [Example 501, 6-(4-Fluorophenyl)-N-L-valylnicotinamide] has an IC50 of at least 1000 nM.
`CC(NC(=O)c1ccc(-c2ccc(F)cc2)nc1)c1ccncn1` (stereo not drawn) [Example 502, 6-(4-Fluorophenyl)-N-(1-pyrimidin-4-ylethyl) nicotinamide] was tested, and the IC50 was at least 1000 nM.
Compound `CC(C)NC(=O)c1ccc(-c2ccc(F)cc2)nc1` [Example 503, 6-(4-Fluorophenyl)-N-isopropylnicotinamide] has an IC50 of at least 1000 nM.
Compound `CS(=O)(=O)c1ccc(CNC(=O)c2ccc(-c3ccc(F)cc3)nc2)cc1` [Example 504, 6-(4-Fluorophenyl)-N-[4-(methylsulfonyl)benzyl] nicotinamide] has an IC50 of 687 nM.
For `O=C(NCc1ccc(Br)cc1)c1ccc(-c2ccc(F)cc2)nc1` [Example 505, N-(4-Bromobenzyl)-6-(4-fluorophenyl)nicotinamide], the IC50 was at least 1000 nM.
For `CCOC(=O)CC(NC(=O)c1ccc(-c2ccc(F)cc2)nc1)c1ccc(OC)cc1` (stereo not drawn) [Example 506, Ethyl 3-({[6-(4-fluorophenyl)pyridin-3-yl]carbonyl}amino)-3-(4-methoxyphenyl)propanoate], the IC50 was at least 1000 nM.
For `O=C(NCCc1cccs1)c1ccc(-c2ccc(F)cc2)nc1` [Example 507, 6-(4-Fluorophenyl)-N-[2-(2-thienyl)ethyl]nicotinamide], the IC50 was 578 nM.
`O=C(NCCNc1ccccc1)c1ccc(-c2ccc(F)cc2)nc1` [Example 508, N-(2-Anilinoethyl)-6-(4-fluorophenyl)nicotinamide] gave an IC50 of 412 nM.
`COC(=O)[C@H](Cc1ccc(Cl)cc1)NC(=O)c1ccc(-c2ccc(F)cc2)nc1` [Example 509, Methyl 4-chloro-N-{[6-(4-fluorophenyl)pyridin-3-yl]carbonyl}phenylalaninate] was tested, and the IC50 was at least 1000 nM.
`COc1cccc(-c2ccc(C(=O)NCc3nnc(-c4cccnc4)[nH]3)cn2)c1` [Example 510, 6-(3-Methoxyphenyl)-N-[(5-pyridin-3-yl-4H-1,2,4-triazol-3-yl)methyl]nicotinamide] was tested, and the IC50 was 575 nM.
`COc1cccc(-c2ccc(C(=O)NCCN3CCCCC3)cn2)c1` [Example 511, 6-(3-methoxyphenyl)-N-(2-piperidin-1-ylethyl)nicotinamide] gave an IC50 of at least 1000 nM.
`CC(C)[C@H](N)C(=O)NC(=O)c1ccc(-c2ccccc2)nc1` [Example 512, 6-Phenyl-N-L-valylnicotinamide] was tested, and the IC50 was 359 nM.
`O=C(NCc1ccc(Br)cc1)c1ccc(-c2ccccc2)nc1` [Example 513, N-(4-Bromobenzyl)-6-phenylnicotinamide] gave an IC50 of 8.9 nM.
Work on `O=C(NCc1nnc(-c2cccnc2)[nH]1)c1ccc(-c2ccccc2)nc1` [Example 514, 6-Phenyl-N-[(5-pyridin-3-yl-4H-1,2,4-triazol-3-yl)methyl]nicotinamide] yielded an IC50 of 5.2 nM.
For `COc1ccc(NC(=O)c2ccc(-c3ccccc3)nc2)cc1OC` [Example 515, N-(3,4-Dimethoxyphenyl)-6-phenylnicotinamide], the IC50 was 0.95 nM.
Compound `CC(NC(=O)c1ccc(-c2ccccc2)nc1)c1ccccc1` (stereo not drawn) [Example 516, 6-Phenyl-N-(1-phenylethyl)nicotinamide] has an IC50 of 31.9 nM.
With `O=C(NCc1ccc(Cl)cc1)c1ccc(-c2ccccc2)nc1` [Example 517, N-(4-Chlorobenzyl)-6-phenylnicotinamide] the IC50 was 11.8 nM.
In the case of `CSc1ccc(CNC(=O)c2ccc(-c3ccccc3)nc2)cc1` [Example 518, N-[4-(Methylthio)benzyl]-6-phenylnicotinamide], the IC50 is reported as 17.5 nM.
In the case of `COc1ccc(CNC(=O)c2ccc(-c3ccccc3)nc2)cc1` [Example 519, N-(4-Methoxybenzyl)-6-phenylnicotinamide], the IC50 is reported as 8.3 nM.
`O=C(NCCNc1ccccc1)c1ccc(-c2ccccc2)nc1` [Example 520, N-(2-Anilinoethyl)-6-phenylnicotinamide] showed an IC50 of 8.8 nM.
In the case of `O=C(Nc1ccc(F)cc1)c1ccc(-c2ccccc2)nc1` [Example 521, N-(4-Fluorophenyl)-6-phenylnicotinamide], the IC50 is reported as 4.82 nM.
In the case of `O=C(NCc1ccc(Cl)c(Cl)c1)c1ccc(-c2ccccc2)nc1` [Example 522, N-(3,4-Dichlorobenzyl)-6-phenylnicotinamide], the IC50 is reported as 25 nM.
`COC(=O)c1ccc(CNC(=O)c2ccc(-c3ccccc3)nc2)cc1` [Example 523, Methyl 4-({[(6-phenylpyridin-3-yl)carbonyl]amino}methyl) benzoate] was tested, and the IC50 was 14.1 nM.
For `O=C(NCc1nnc(-c2cccnc2)[nH]1)c1ccc(-c2cccc(F)c2)nc1` [Example 524, 6-(3-Fluorophenyl)-N-[(5-pyridin-3-yl-4H-1,2,4-triazol-3-yl)methyl]nicotinamide], the IC50 was 9.36 nM.
`O=C(NCC1CCCCO1)c1ccc(-c2cccc(F)c2)nc1` (stereo not drawn) [Example 525, 6-(3-Fluorophenyl)-N-(tetrahydro-2H-pyran-2-ylmethyl)nicotinamide] showed an IC50 of 68.5 nM.
Compound `CC(C)[C@H](N)C(=O)NC(=O)c1ccc(-c2cccc(F)c2)nc1` [Example 526, 6-(3-Fluorophenyl)-N-L-valylnicotinamide] has an IC50 of 1510 nM.
Work on `Cc1cccc(NC(=O)c2ccc(-c3ccccc3)nc2)c1C` [Example 527, N-(2,3-Dimethylphenyl)-6-phenylnicotinamide] yielded an IC50 of 10.3 nM.
Compound `O=C(NCC1COc2ccccc2C1)c1ccc(-c2cccc(F)c2)nc1` (stereo not drawn) [Example 528, N-(3,4-Dihydro-2H-chromen-3-ylmethyl)-6-(3-fluorophenyl)nicotinamide] has an IC50 of 6.45 nM.
Work on `Cc1ccc2c(c1)C(NC(=O)c1ccc(-c3cccc(F)c3)nc1)CC(C)(C)O2` (stereo not drawn) [Example 530, 6-(3-Fluorophenyl)-N-(2,2,6-trimethyl-3,4-dihydro-2H-chromen-4-yl)nicotinamide] yielded an IC50 of 3.03 nM.
`Cc1ccc2c(c1C)OCCC2NC(=O)c1ccc(-c2cccc(F)c2)nc1` (stereo not drawn) [Example 531, N-(7,8-Dimethyl-3,4-dihydro-2H-chromen-4-yl)-6-(3-fluorophenyl)nicotinamide] showed an IC50 of 3.34 nM.
`Cc1cccc2c1OCCC2NC(=O)c1ccc(-c2cccc(F)c2)nc1` (stereo not drawn) [Example 532, 6-(3-Fluorophenyl)-N-(8-methyl-3,4-dihydro-2H-chromen-4-yl)nicotinamide] was tested, and the IC50 was 3.94 nM.
`Cc1cccc2c1OCCC2NC(=O)c1ccc(-c2cc(F)cc(F)c2)nc1` (stereo not drawn) [Example 533, 6-(3,5-Difluorophenyl)-N-(8-methyl-3,4-dihydro-2H-chromen-4-yl)nicotinamide] gave an IC50 of 8.79 nM.
For `O=C(NCC1C(=O)Nc2ccc(F)cc21)c1ccc(-c2cccc(F)c2)nc1` (stereo not drawn) [Example 534, N-[(5-Fluoro-2-oxo-2,3-dihydro-1H-indol-3-yl)methyl]-6-(3-fluorophenyl)nicotinamide], the IC50 was 1.04 nM.
`O=C(NCc1coc(-c2ccc(F)cc2)n1)c1ccc(-c2cccc(F)c2)nc1` [Example 535, 6-(3-Fluorophenyl)-N-{[2-(4-fluorophenyl)-1,3-oxazol-4-yl]methyl}nicotinamide] was tested, and the IC50 was 5.56 nM.
For `Cc1ccc2c(c1)C(NC(=O)c1ccc(-c3cc(F)cc(F)c3)nc1)CC(C)(C)O2` (stereo not drawn) [Example 536, 6-(3,5-Difluorophenyl)-N-(2,2,6-trimethyl-3,4-dihydro-2H-chromen-4-yl)nicotinamide], the IC50 was 53.5 nM.
`CCC(C)C(CO)NC(=O)c1ccc(-c2cccc(F)c2)nc1` (stereo not drawn) [Example 537, 6-(3-Fluorophenyl)-N-[1-(hydroxymethyl)-2-methylbutyl]nicotinamide] showed an IC50 of 61.2 nM.
In the case of `Cc1ccc2c(c1C)OCCC2NC(=O)c1ccc(-c2cc(F)cc(F)c2)nc1` (stereo not drawn) [Example 538, 6-(3,5-Difluorophenyl)-N-(7,8-dimethyl-3,4-dihydro-2H-chromen-4-yl)nicotinamide], the IC50 is reported as 30.1 nM.
`CC(C)(C)[C@@H](CO)NC(=O)c1ccc(-c2cccc(F)c2)nc1` [Example 539, 6-(3-Fluorophenyl)-N-[(1S)-1-(hydroxymethyl)-2,2-dimethylpropyl]nicotinamide] showed an IC50 of 64.4 nM.
In the case of `COc1ccc(CNC(=O)c2ccc(-c3ccccc3)nc2)cc1OC` [Example 540, N-(3,4-Dimethoxybenzyl)-6-phenylnicotinamide], the IC50 is reported as 5.41 nM.
For `Cc1ccccc1CNC(=O)c1ccc(-c2cc(F)cc(F)c2)nc1` [Example 541, 6-(3,5-Difluorophenyl)-N-(2-methylbenzyl)nicotinamide], the IC50 was 16.9 nM.
`O=C(NCC1COc2ccccc2C1)c1ccc(-c2cc(F)cc(F)c2)nc1` (stereo not drawn) [Example 542, 6-(3,5-Difluorophenyl)-N-(3,4-dihydro-2H-chromen-3-ylmethyl)nicotinamide] gave an IC50 of 39.1 nM.
`COc1cc(F)cc(-c2ccc(C(=O)NCCCN3CCCC3=O)cn2)c1` [Example 543, 6-(3-Fluoro-5-methoxyphenyl)-N-[3-(2-oxopyrrolidin-1-yl)propyl]nicotinamide] was tested, and the IC50 was 104 nM.
`Cc1nc(CCNC(=O)c2cnc(-c3cccc(F)c3)c(Cl)c2)cs1` [Example 544, 5-Chloro-6-(3-fluorophenyl)-N-[2-(2-methyl-1,3-thiazol-4-yl)ethyl]nicotinamide] showed an IC50 of 12 nM.
`COc1ccc(CNC(=O)c2cnc(-c3cccc(F)c3)c(Cl)c2)cc1OC` [Example 545, 5-Chloro-N-(3,4-dimethoxybenzyl)-6-(3-fluorophenyl)nicotinamide] gave an IC50 of 14.2 nM.
Compound `O=C(NCc1nc2ccccc2s1)c1cnc(-c2cccc(F)c2)c(Cl)c1` [Example 546, N-(1,3-Benzothiazol-2-ylmethyl)-5-chloro-6-(3-fluorophenyl)nicotinamide] has an IC50 of 59.6 nM.
Compound `O=C(NCC1COc2ccccc2C1)c1cnc(-c2cccc(F)c2)c(Cl)c1` (stereo not drawn) [Example 547, 5-Chloro-N-(3,4-dihydro-2H-chromen-3-ylmethyl)-6-(3-fluorophenyl)nicotinamide] has an IC50 of 98.4 nM.
